Measurements as given in patent publication US10597388B2, “Pyridazinone herbicides” (FMC CORPORATION, priority 2014, dated 2020).

Experiments:
Assay in all cases: Test D controlled growth environment herbicide test, pre- and postemergence
Type in all cases: in vivo
[1] = system: Russian thistle (Salsola kali)
Description: (§1) Seeds of plant species selected from bluegrass (annual bluegrass, Poa annua), blackgrass (Alopecurus myosuroides), Canada thistle (Cirsium arvense), canarygrass (Phalaris minor), chickweed (common chickweed, Stellaria media), geranium, cutleaf (cutleaf geranium, Geranium dissectum), galium (catchweed bedstraw, Galium aparine), bromegrass, downy (downy bromegrass, Bromus tectorum), field poppy (Papaver rhoeas), field violet (Viola arvensis), foxtail, green (green foxtail, Setaria viridis), deadnettle (henbit deadnettle, Lamium amplexicaule), ryegrass, Italian (Italian ryegrass, Lolium multiflorum), kochia (Kochia scoparia), lambsquarters (Chenopodium album), oilseed rape (Brassica napus), pigweed (Amaranthus retroflexus), chamomile (scentless chamomile, Matricaria inodora), Russian thistle (Salsola kali), speedwell (bird's-eye speedwell, Veronica persica), barley, spring (spring barley, Hordeum vulgare), wheat, spring (spring wheat, Triticum aestivum), buckwheat, wild (wild buckwheat, Polygonum convolvulus), mustard, wild (wild mustard, Sinapis arvensis), oat, wild (wild oat, Avena fatua), radish, wild (wild radish, Raphanus raphanistrum), windgrass (Apera spica-venti), barley, winter (winter barley, Hordeum vulgare), and wheat, winter (winter wheat, Triticum aestivum) were planted into a silt loam soil and treated preemergence with test chemicals formulated in a non-phytotoxic solvent mixture which included a surfactant.
(§2) At the same time, these species were planted in pots containing Redi-Earth® planting medium (Scotts Company, 14111 Scottslawn Road, Marysville, Ohio 43041) comprising spaghnum peat moss, vermiculite, wetting agent and starter nutrients and treated with postemergence applications of the test chemicals formulated in the same manner. Plants ranged in height from 2 to 18 cm (1- to 4-leaf stage). Treated plants and controls were maintained in a controlled growth environment for 14 to 21 d after which time all species were compared to controls and visually evaluated. Plant response ratings, summarized in Table D, are based on a scale of 0 to 100 where 0 is no effect and 100 is complete control. A dash (-) response means no test result.

[2] = system: barley, winter (winter barley, Hordeum vulgare)
Description: as §1, §2

[3] = system: bromegrass, downy (downy bromegrass, Bromus tectorum)
Description: as §1, §2

[4] = system: buckwheat, wild (wild buckwheat, Polygonum convolvulus)
Description: as §1, §2

[5] = system: canarygrass (Phalaris minor)
Description: as §1, §2

[6] = system: chickweed (common chickweed, Stellaria media)
Description: as §1, §2

[7] = system: field violet (Viola arvensis)
Description: as §1, §2

[8] = system: galium (catchweed bedstraw, Galium aparine)
Description: as §1, §2

kochia (Kochia scoparia) = system: kochia (Kochia scoparia)
Description: as §1, §2

[9] = system: oat, wild (wild oat, Avena fatua)
Description: as §1, §2

[10] = system: pigweed (Amaranthus retroflexus)
Description: as §1, §2

[11] = system: radish, wild (wild radish, Raphanus raphanistrum)
Description: as §1, §2

[12] = system: windgrass (Apera spica-venti)
Description: as §1, §2

[13] = Postemergence, 31 g ai/ha, scale 0 to 100 (0 no effect, 100 complete control)
[14] = Postemergence, 125 g ai/ha, visual rating on scale 0 (no effect) to 100 (complete control), 14 to 21 d
[15] = Postemergence, 250 g ai/ha, scale 0 to 100 (0 no effect, 100 complete control)
[16] = Preemergence, 62 g ai/ha, scale 0 to 100 (0 no effect, 100 complete control)
[17] = Preemergence, 125 g ai/ha, scale 0 to 100 (0 no effect, 100 complete control)
[18] = Preemergence, 250 g ai/ha, scale 0 to 100 (0 no effect, 100 complete control)
[19] = postemergence, 62 g ai/ha, scale 0 to 100, 0 no effect, 100 complete control

## COc1nn(C)c(=O)c(-c2c(C)ccc3ccccc23)c1OC(=O)OC(C)C [Compound 36]
[1]; [13]
  Russian Thistle plant response rating: 80
[1]; [14]
  Plant response rating, Russian Thistle: 85
[1]; [15]
  Plant response rating, Russian Thistle: 90
[1]; Preemergence, 31 g ai/ha
  Plant response rating (scale of 0 to 100), Russian Thistle: 0
[1]; [16]
  Plant response rating, Russian Thistle: 15
[1]; [17]
  Plant response rating, Russian Thistle: 10
[1]; [18]
  Plant response rating, Russian Thistle: 15
[1]; [19]
  Plant response rating, Russian Thistle: 85
[2]; [13]
  Plant response rating, Barley, Winter: 0
[2]; [14]
  Plant response rating, Barley, Winter: 5
[2]; [15]
  Plant response rating, Barley, Winter: 10
[2]; Preemergence, 31 g ai/ha
  Plant response rating (scale of 0 to 100), Barley, Winter: 0
[2]; [16]
  Plant response rating, Barley, Winter: 0
[2]; [17]
  Plant response rating, Barley, Winter: 0
[2]; [18]
  Barley, Winter plant response rating: 0
[2]; [19]
  Plant response rating, Barley, Winter: 0
[3]; [13]
  Bromegrass, Downy plant response rating: 10
[3]; [14]
  Plant response rating, Bromegrass, Downy: 55
[3]; [15]
  Plant response rating, Bromegrass, Downy: 65
[3]; Preemergence, 31 g ai/ha
  Plant response rating (scale of 0 to 100), Bromegrass, Downy: 0
[3]; [16]
  Plant response rating, Bromegrass, Downy: 0
[3]; [17]
  Plant response rating, Bromegrass, Downy: 10
[3]; [18]
  Plant response rating, Bromegrass, Downy: 35
[3]; [19]
  Plant response rating, Bromegrass, Downy: 20
[4]; [13]
  Buckwheat, Wild plant response rating: 100
[4]; [14]
  Plant response rating, Buckwheat, Wild: 100
[4]; [15]
  Plant response rating, Buckwheat, Wild: 100
[4]; Preemergence, 31 g ai/ha
  Plant response rating (scale of 0 to 100), Buckwheat, Wild: 0
[4]; [16]
  Plant response rating, Buckwheat, Wild: 0
[4]; [17]
  Plant response rating, Buckwheat, Wild: 10
[4]; [18]
  Plant response rating, Buckwheat, Wild: 10
[4]; [19]
  Plant response rating, Buckwheat, Wild: 100
[5]; [13]
  Canarygrass plant response rating: 15
[5]; [14]
  Plant response rating, Canarygrass: 55
[5]; [15]
  Plant response rating, Canarygrass: 80
[5]; Preemergence, 31 g ai/ha
  Plant response rating (scale of 0 to 100), Canarygrass: 0
[5]; [16]
  Plant response rating, Canarygrass: 45
[5]; [17]
  Plant response rating, Canarygrass: 40
[5]; [18]
  Plant response rating, Canarygrass: 65
[5]; [19]
  Plant response rating, Canarygrass: 40
[6]; [13]
  Chickweed plant response rating: 100
[6]; [14]
  Plant response rating, Chickweed: 100
[6]; [15]
  Plant response rating, Chickweed: 100
[6]; Preemergence, 31 g ai/ha
  Plant response rating (scale of 0 to 100), Chickweed: 95
[6]; [16]
  Plant response rating, Chickweed: 95
[6]; [17]
  Plant response rating, Chickweed: 100
[6]; [18]
  Plant response rating, Chickweed: 100
[6]; [19]
  Plant response rating, Chickweed: 100
[7]; [13]
  Field Violet plant response rating: 70
[7]; [14]
  Plant response rating, Field Violet: 90
[7]; [15]
  Plant response rating, Field Violet: 90
[7]; Preemergence, 31 g ai/ha
  Plant response rating (scale of 0 to 100), Field Violet: 15
[7]; [16]
  Plant response rating, Field Violet: 10
[7]; [17]
  Plant response rating, Field Violet: 70
[7]; [18]
  Plant response rating, Field Violet: 95
[7]; [19]
  Plant response rating, Field Violet: 85
[8]; [13]
  Galium plant response rating: 100
[8]; [14]
  Plant response rating, Galium: 100
[8]; [15]
  Plant response rating, Galium: 100
[8]; Preemergence, 31 g ai/ha
  Plant response rating (scale of 0 to 100), Galium: 0
[8]; [16]
  Plant response rating, Galium: 20
[8]; [17]
  Plant response rating, Galium: 75
[8]; [18]
  Plant response rating, Galium: 85
[8]; [19]
  Plant response rating, Galium: 100
Kochia (Kochia scoparia); [13]
  Kochia plant response rating: 85
Kochia (Kochia scoparia); [14]
  Plant response rating, Kochia: 100
Kochia (Kochia scoparia); [15]
  Plant response rating, Kochia: 100
Kochia (Kochia scoparia); Preemergence, 31 g ai/ha
  Plant response rating (scale of 0 to 100), Kochia: 0
Kochia (Kochia scoparia); [16]
  Plant response rating, Kochia: 25
Kochia (Kochia scoparia); [17]
  Plant response rating, Kochia: 45
Kochia (Kochia scoparia); [18]
  Plant response rating, Kochia: 60
Kochia (Kochia scoparia); [19]
  Plant response rating, Kochia: 95
[9]; [13]
  Oat, Wild plant response rating: 35
[9]; [14]
  Plant response rating, Oat, Wild: 85
[9]; [15]
  Plant response rating, Oat, Wild: 95
[9]; Preemergence, 31 g ai/ha
  Plant response rating (scale of 0 to 100), Oat, Wild: 35
[9]; [16]
  Plant response rating, Oat, Wild: 45
[9]; [17]
  Plant response rating, Oat, Wild: 75
[9]; [18]
  Plant response rating, Oat, Wild: 85
[9]; [19]
  Plant response rating, Oat, Wild: 80
[10]; [13]
  Pigweed plant response rating: 100
[10]; [14]
  Plant response rating, Pigweed: 100
[10]; [15]
  Plant response rating, Pigweed: 100
[10]; Preemergence, 31 g ai/ha
  Plant response rating (scale of 0 to 100), Pigweed: 55
[10]; [16]
  Plant response rating, Pigweed: 75
[10]; [17]
  Plant response rating, Pigweed: 100
[10]; [18]
  Plant response rating, Pigweed: 100
[10]; [19]
  Plant response rating, Pigweed: 100
[11]; [13]
  Radish, Wild plant response rating: 80
[11]; [14]
  Plant response rating, Radish, Wild: 100
[11]; [15]
  Plant response rating, Radish, Wild: 100
[11]; Preemergence, 31 g ai/ha
  Plant response rating (scale of 0 to 100), Radish, Wild: 0
[11]; [16]
  Plant response rating, Radish, Wild: 0
[11]; [17]
  Plant response rating, Radish, Wild: 50
[11]; [18]
  Plant response rating, Radish, Wild: 70
[11]; [19]
  Plant response rating, Radish, Wild: 90
[12]; [13]
  Windgrass plant response rating: 40
[12]; [14]
  Plant response rating, Windgrass: 70
[12]; [15]
  Plant response rating, Windgrass: 75
[12]; Preemergence, 31 g ai/ha
  Plant response rating (scale of 0 to 100), Windgrass: 0
[12]; [16]
  Plant response rating, Windgrass: 5
[12]; [17]
  Plant response rating, Windgrass: 5
[12]; [18]
  Plant response rating, Windgrass: 65
[12]; [19]
  Plant response rating, Windgrass: 50
